The text below walks through data of ChEMBL document CHEMBL1128553, “Synthesis of 1,4,7,8,9,10-hexahydro-9-methyl-6-nitropyrido[3,4-f]- quinoxaline-2,3-dione and related quinoxalinediones: characterization of alpha-amino-3-hydroxy-5-methyl-4-isoxazolepropionic acid (and N-methyl-D-aspartate) receptor and anticonvulsant activity” (J Med Chem, 1995).

Structures are written as SMILES.

The target of test [1] is Glutamate receptor ionotropic, kainate. In words: Binding affinity for the ionotropic glutamate receptor kainate in rat brain synaptic membranes using [3H]kainate as radioligand. It is filed as cell membranes.
Test [2] has as its target Glutamate receptor ionotropic, NMDA 1 (Rattus norvegicus, UniProt P35439). Nature of the test: Affinity for N-methyl-D-aspartate glutamate receptor 1 in rat brain synaptic membranes, using [3H]glycine as radioligand. In kind it is cell membranes.
The species entered for test [3] is Rattus norvegicus. Nature of the test: Concentration of compound that inhibits by 50% depolarizations induced by 10 uM AMPA. It is filed as functional.
Test [4] is filed under the species Rattus norvegicus. In words: Concentration of compound that inhibits by 50% LDH released by 24 hr application of 100 uM AMPA. In kind it is functional, organism-based.
In test [5] the target is T1, Glutamate receptor ionotropic, AMPA (Rattus norvegicus, UniProt P19490+P19491+P19492+P19493).
Description: Inhibition of Ionotropic glutamate receptor AMPA induced depolarization in rat cortical wedge by application of 10 uM of AMPA
In test [6] the target is T1, Glutamate receptor ionotropic, AMPA. The source holds these as a separate data set.
Description: (§1) Binding affinity was determined against ionotropic glutamate receptor AMPA in rat brain synaptic membranes using [3H]AMPA as radioligand
For test [7] the target is unchanged. The source holds these as a separate data set.
Description: Antagonistic activity against Ionotropic glutamate receptor AMPA induced LDH release in cultured rat cortical neurons after 24 hr 100 uM AMPA
In test [8] the target is Glutamate receptor ionotropic, kainate. Nature of the test: Antagonistic activity against Ionotropic glutamate receptor kainate induced LDH release in cultured cortical neurons in rat after 24 hr application of 500 uM of kainate. It is filed as functional. On the technique in general: Release of lactate dehydrogenase indicates damage to the cell membrane.
The species named for test [9] is Rattus norvegicus. In words: Concentration of compound that inhibits by 50% LDH released by 24 hr application of 500 uM kainate. It is filed as functional, organism-based.
Test [10] concerns the target Glutamate receptor ionotropic, AMPA (Rattus norvegicus, UniProt P19491+P19492+P19493+P19490).
Description: as §1

Chain of Glutamate receptor ionotropic, AMPA (Rattus norvegicus, UniProt P19491+P19492+P19493+P19490) (P19491 whole entry): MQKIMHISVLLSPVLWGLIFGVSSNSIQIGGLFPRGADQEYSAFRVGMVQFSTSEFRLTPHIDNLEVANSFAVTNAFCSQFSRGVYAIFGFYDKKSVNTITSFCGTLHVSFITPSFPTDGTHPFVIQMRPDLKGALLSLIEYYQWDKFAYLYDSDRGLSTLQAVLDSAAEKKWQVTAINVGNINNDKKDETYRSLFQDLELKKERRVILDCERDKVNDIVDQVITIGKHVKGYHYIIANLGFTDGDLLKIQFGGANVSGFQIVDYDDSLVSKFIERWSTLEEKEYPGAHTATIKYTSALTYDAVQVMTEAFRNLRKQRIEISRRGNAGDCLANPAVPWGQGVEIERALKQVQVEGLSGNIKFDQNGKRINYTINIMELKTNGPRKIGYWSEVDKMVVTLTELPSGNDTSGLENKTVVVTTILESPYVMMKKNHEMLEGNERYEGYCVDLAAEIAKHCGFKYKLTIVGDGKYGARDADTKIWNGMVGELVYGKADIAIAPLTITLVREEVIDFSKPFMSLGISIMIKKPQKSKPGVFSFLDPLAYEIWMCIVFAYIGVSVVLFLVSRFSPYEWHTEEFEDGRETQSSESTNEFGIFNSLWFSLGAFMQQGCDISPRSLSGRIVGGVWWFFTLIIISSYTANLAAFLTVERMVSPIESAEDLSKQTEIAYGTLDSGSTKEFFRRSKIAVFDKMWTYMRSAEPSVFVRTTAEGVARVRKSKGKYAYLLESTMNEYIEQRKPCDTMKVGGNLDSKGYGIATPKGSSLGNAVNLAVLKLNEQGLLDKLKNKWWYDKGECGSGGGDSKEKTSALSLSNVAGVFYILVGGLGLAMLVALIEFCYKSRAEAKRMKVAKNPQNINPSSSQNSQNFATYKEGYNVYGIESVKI
Chain of Glutamate receptor ionotropic, AMPA (Rattus norvegicus, UniProt P19491+P19492+P19493+P19490) (P19492 whole entry): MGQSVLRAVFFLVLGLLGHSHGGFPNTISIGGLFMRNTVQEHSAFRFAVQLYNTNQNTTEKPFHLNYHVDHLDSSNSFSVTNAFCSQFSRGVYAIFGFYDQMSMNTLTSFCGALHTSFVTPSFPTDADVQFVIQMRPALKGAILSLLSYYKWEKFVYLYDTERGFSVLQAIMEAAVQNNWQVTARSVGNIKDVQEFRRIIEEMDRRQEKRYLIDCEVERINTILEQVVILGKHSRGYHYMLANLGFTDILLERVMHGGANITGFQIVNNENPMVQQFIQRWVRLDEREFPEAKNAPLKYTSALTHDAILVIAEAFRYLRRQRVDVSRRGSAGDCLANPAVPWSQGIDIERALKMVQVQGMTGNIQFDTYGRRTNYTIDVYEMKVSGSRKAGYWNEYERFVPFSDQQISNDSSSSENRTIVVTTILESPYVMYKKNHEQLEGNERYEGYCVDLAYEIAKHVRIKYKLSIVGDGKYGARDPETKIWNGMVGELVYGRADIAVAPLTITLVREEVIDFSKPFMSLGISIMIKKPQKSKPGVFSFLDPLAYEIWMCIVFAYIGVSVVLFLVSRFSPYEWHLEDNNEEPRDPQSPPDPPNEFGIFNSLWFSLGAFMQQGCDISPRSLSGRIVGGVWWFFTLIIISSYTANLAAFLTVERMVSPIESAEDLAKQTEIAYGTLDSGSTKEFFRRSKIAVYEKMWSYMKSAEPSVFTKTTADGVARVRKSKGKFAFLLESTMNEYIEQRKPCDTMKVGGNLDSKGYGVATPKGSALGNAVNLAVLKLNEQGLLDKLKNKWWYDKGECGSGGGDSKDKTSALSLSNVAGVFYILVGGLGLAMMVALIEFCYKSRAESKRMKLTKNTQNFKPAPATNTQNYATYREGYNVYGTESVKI
Chain of Glutamate receptor ionotropic, AMPA (Rattus norvegicus, UniProt P19491+P19492+P19493+P19490) (P19493 whole entry): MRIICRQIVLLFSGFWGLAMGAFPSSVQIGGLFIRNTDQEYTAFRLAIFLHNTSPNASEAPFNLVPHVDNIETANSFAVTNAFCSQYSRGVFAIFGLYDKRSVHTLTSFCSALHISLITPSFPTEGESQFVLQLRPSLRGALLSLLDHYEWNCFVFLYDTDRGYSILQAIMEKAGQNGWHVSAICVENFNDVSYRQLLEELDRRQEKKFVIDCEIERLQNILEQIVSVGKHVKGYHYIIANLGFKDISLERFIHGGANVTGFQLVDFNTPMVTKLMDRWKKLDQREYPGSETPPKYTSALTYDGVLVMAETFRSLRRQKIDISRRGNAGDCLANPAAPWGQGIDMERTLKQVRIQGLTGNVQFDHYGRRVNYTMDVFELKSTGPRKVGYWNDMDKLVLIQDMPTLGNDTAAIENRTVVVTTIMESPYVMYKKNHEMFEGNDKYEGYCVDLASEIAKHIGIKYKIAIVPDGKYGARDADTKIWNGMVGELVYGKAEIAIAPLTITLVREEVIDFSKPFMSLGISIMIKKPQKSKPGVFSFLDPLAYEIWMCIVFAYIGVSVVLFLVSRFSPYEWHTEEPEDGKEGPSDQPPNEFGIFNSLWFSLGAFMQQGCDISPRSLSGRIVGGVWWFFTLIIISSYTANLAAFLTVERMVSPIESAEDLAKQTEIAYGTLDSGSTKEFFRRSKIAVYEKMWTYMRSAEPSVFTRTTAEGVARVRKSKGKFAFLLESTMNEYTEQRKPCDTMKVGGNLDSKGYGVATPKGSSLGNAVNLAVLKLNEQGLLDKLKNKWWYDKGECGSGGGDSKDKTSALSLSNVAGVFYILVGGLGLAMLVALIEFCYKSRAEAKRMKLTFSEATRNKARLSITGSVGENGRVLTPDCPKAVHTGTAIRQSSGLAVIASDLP
Chain of Glutamate receptor ionotropic, AMPA (Rattus norvegicus, UniProt P19491+P19492+P19493+P19490) (P19490 whole entry): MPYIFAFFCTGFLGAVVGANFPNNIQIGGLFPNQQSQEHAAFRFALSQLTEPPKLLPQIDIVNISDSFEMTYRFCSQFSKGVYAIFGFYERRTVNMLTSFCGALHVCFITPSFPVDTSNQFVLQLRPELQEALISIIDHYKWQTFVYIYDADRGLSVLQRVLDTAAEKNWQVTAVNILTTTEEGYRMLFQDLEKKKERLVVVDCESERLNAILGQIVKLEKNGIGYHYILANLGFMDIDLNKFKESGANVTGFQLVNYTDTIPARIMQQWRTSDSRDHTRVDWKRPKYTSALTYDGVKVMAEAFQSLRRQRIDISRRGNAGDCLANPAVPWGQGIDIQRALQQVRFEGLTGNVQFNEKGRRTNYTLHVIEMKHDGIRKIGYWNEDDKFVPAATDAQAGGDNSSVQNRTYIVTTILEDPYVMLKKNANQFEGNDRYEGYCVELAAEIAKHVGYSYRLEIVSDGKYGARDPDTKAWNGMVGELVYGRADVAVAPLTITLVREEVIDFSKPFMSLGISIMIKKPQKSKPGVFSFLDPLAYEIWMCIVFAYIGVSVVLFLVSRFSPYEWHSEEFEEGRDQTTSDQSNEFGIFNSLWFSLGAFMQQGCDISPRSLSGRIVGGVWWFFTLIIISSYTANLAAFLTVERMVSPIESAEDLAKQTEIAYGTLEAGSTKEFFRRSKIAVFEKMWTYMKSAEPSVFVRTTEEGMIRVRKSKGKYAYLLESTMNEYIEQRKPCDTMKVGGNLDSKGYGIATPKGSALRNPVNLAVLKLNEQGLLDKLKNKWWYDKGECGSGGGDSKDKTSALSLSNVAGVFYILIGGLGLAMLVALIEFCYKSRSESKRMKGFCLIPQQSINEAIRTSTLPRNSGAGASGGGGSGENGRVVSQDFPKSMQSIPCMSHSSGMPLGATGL

As to `CCC(C)N1CCc2c([N+](=O)[O-])cc3[nH]c(=O)c(=O)[nH]c3c2C1` (stereo not given), the IC50 was determined as 0.85 µM in test [1]; 0.93 µM in [2]; 1.6 µM in the test listed under Rattus norvegicus [3]; 15 µM in the test filed under Rattus norvegicus [4]; 1.6 µM in [5]; 0.28 µM in test [6]. Also, the IC50 in test [7] was 15 µM.
In the case of `CCN1CCc2c(c([N+](=O)[O-])cc3nc(O)c(O)nc23)C1`, the IC50 was determined as 0.49 µM in test [1]; 26 µM in test [8]; 5 µM in test [2]; 26 µM in the test filed under Rattus norvegicus [9]; 14 µM in the test filed under Rattus norvegicus [3]; 25 µM in the test listed under Rattus norvegicus [4]. Besides, the IC50 in test [5] worked out at 14 µM; in test [6] it was 0.54 µM; in test [7] it was 25 µM.
In the case of `CC(C)N1CCc2c([N+](=O)[O-])cc3[nH]c(=O)c(=O)[nH]c3c2C1`, the IC50 is 0.29 µM in test [1]; 7 µM in test [8]; 0.93 µM in test [2]; 7 µM in the test listed under Rattus norvegicus [9]; 1.5 µM in the test listed under Rattus norvegicus [3]; 6 µM in the test listed under Rattus norvegicus [4]. Also, the IC50 in test [5] worked out at 1.5 µM; in [6], 0.153 µM; in test [7], 6 µM.
As to `CCN1CCc2c([N+](=O)[O-])cc3[nH]c(=O)c(=O)[nH]c3c2C1`, the IC50 amounted to 0.52 µM in test [1]; 7 µM in [8]; 1.4 µM in test [2]; 7 µM in the test listed under Rattus norvegicus [9]; 0.7 µM in the test listed under Rattus norvegicus [3]; 6 µM in the test listed under Rattus norvegicus [4]. The IC50 in [5] is 0.7 µM; in test [6], 0.166 µM; in test [7] it was 6 µM.
Consider `CN1CCc2c([N+](=O)[O-])cc3[nH]c(=O)c(=O)[nH]c3c2C1`, for which the IC50 in test [1] is 0.368 µM; in [8], 4 µM; in [2] it was 0.37 µM; in the test listed under Rattus norvegicus [9] it was 4 µM; in the test listed under Rattus norvegicus [3], 0.5 µM; in the test listed under Rattus norvegicus [4], 2.5 µM. Also, the IC50 is 0.5 µM in [5], 0.063 µM in test [6], 2.5 µM in test [7] and 0.063 µM in test [10].
Turning to `CCC(C)CN1CCc2c([N+](=O)[O-])cc3[nH]c(=O)c(=O)[nH]c3c2C1` (stereo not given), the IC50 stood at 0.28 µM in test [1]; 11 µM in test [8]; 1.3 µM in test [2]; 11 µM in the test listed under Rattus norvegicus [9]; 8 µM in the test filed under Rattus norvegicus [4]; 0.28 µM in test [6]. In addition, the midpoint of inhibition in test [7], the IC50, lay at 8 µM.
Consider `CN1CCc2c(c([N+](=O)[O-])cc3[nH]c(=O)c(=O)[nH]c23)C1`, for which the IC50 came out at 0.38 µM in [1]; 9 µM in test [8]; 4.9 µM in test [2]; 9 µM in the test listed under Rattus norvegicus [9]; 1.8 µM in the test listed under Rattus norvegicus [3]; 18 µM in the test listed under Rattus norvegicus [4]. In addition, the figures for the IC50 in test [5], in test [6] and in test [7] were 1.8 µM, 0.29 µM and 18 µM, respectively.
`CN1CCc2c(c(Br)cc3[nH]c(=O)c(=O)[nH]c23)C1`: the IC50 in [1] is 1.76 µM; in [2], 4.3 µM; in [6], 1.86 µM.
Turning to `CC(C)CCN1CCc2c([N+](=O)[O-])cc3[nH]c(=O)c(=O)[nH]c3c2C1`, the IC50 in test [1] turned out to be 1.18 µM; in test [8] it was 7 µM; in test [2], 0.86 µM; in the test filed under Rattus norvegicus [9], 7 µM; in the test filed under Rattus norvegicus [4], 5 µM; in [6], 0.11 µM. In [7], the IC50 was found to be 5 µM.
As for `CN1CCc2c(Br)cc3[nH]c(=O)c(=O)[nH]c3c2C1`, the IC50 in test [1] was 2.83 µM; in [2] it was 4 µM; in test [6], 2.84 µM.
For `CCC(C)CN1CCc2c(Br)cc3nc(O)c(O)nc3c2C1` (stereo not given), the IC50 was 2.9 µM in test [1]; more than 30 µM in test [8]; more than 100 µM in test [2]; more than 30 µM in the test filed under Rattus norvegicus [9]; more than 30 µM in the test filed under Rattus norvegicus [3]; more than 30 µM in the test filed under Rattus norvegicus [4]. The IC50 is more than 30 µM in test [5], more than 100 µM in [6] and more than 30 µM in test [7].
As to `CN1CCc2c(c(Br)c([N+](=O)[O-])c3[nH]c(=O)c(=O)[nH]c23)C1`, the results for the IC50 in [1], in test [2] and in [6] were 5.7 µM, more than 10 µM and 1.9 µM, respectively.
The like results for `CCC(C)N1CCc2c(Br)cc3nc(O)c(O)nc3c2C1` (stereo not given) were, in that order, 0.43 µM, more than 10 µM and 2.5 µM.
In the case of `CCC(C)CN1CCc2c(c([N+](=O)[O-])cc3[nH]c(=O)c(=O)[nH]c23)C1` (stereo not given), the values for the IC50 in [1], in [2] and in test [6] were 15 µM, more than 100 µM and 1.3 µM, respectively.
Take `CC(C)CCN1CCc2c(Br)cc3nc(O)c(O)nc3c2C1`: the IC50 in test [1] is 0.68 µM; in test [8] it was more than 30 µM; in test [2] it was more than 10 µM; in the test listed under Rattus norvegicus [9], more than 30 µM; in the test listed under Rattus norvegicus [3], 16.5 µM; in the test filed under Rattus norvegicus [4], more than 30 µM. Besides, the IC50 in test [5] was 16.5 µM; in test [6], 9.7 µM; in test [7], more than 30 µM.
In the case of `CN1CCc2c(C#N)cc3[nH]c(=O)c(=O)[nH]c3c2C1`, the IC50 in test [1] amounted to 2.4 µM; in test [2], 1.4 µM; in [6], 1.36 µM.
Taken in the same sequence, the figures for `CCCCCCCN1CCc2c(c([N+](=O)[O-])cc3[nH]c(=O)c(=O)[nH]c23)C1` were 79 µM, more than 10 µM and 5.8 µM.
Regarding `CN1CCc2ccc3[nH]c(=O)c(=O)[nH]c3c2C1`, the IC50 in test [1] is 71.2 µM; in [2], more than 100 µM; in test [6], 18 µM.
The like results for `CCCN1CCc2c(c([N+](=O)[O-])cc3[nH]c(=O)c(=O)[nH]c23)C1` were, in that order, 1.7 µM, 20 µM and 2.8 µM.
As for `CCN1CCc2c(Br)cc3[nH]c(=O)c(=O)[nH]c3c2C1`, the IC50 in test [1] turned out to be 6.4 µM; in test [2], 0.62 µM; in test [6] it was 0.74 µM.

The term IC50 denotes the concentration needed to halve the response being measured.
